In ChEMBL document CHEMBL1201862, “PubChem BioAssay data set” (2004):
Activity calls are given as the source filed them.

Assays:
[1] = molecular target: T1, Alkaline phosphatase, tissue-nonspecific isozyme (Homo sapiens, UniProt P05186)
T1 sequence (P05186 whole entry): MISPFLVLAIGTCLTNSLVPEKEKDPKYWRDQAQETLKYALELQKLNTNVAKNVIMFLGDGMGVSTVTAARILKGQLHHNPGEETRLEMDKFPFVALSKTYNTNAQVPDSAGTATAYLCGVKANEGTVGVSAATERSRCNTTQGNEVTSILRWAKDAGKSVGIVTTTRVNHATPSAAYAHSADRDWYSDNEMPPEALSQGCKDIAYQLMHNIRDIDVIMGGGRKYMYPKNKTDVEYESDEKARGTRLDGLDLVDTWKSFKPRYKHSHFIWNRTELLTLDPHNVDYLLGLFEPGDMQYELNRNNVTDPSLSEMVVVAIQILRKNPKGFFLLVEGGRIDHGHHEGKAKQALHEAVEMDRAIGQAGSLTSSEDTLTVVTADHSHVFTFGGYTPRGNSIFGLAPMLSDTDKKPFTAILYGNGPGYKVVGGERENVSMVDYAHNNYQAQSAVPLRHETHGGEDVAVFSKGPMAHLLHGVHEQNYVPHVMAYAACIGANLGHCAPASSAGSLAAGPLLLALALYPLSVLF

[2] = THP-1 cell cytotoxicity, dose response, cytotoxicity control for Vif-APOBEC3G degradation inhibitor project, THP-1 cells (AID 1117359); type: functional; details: Human immunodeficiency virus 1, THP-1
[3] = molecular target: Melanin-concentrating hormone receptor 1 (Homo sapiens, UniProt Q99705); assay: Fluorescence-based counterscreen for antagonists of the G-protein coupled receptor 7 (GPR7): cell-based high throughput dose response assay to identify antagonists of the melanin-concentrating hormone receptor 1 (MCHR1).; type: functional
Sequence of Melanin-concentrating hormone receptor 1 (Q99705 whole entry): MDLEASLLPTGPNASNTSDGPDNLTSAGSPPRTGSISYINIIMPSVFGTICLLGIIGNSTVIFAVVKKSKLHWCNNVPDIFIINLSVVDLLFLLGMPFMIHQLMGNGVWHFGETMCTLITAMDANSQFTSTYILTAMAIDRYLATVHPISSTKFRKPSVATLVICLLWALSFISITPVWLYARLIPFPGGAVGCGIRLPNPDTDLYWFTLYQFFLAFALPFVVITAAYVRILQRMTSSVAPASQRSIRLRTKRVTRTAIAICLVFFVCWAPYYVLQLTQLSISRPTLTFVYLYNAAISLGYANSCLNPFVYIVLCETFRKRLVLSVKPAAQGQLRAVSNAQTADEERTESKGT

[4] = molecular target: T2, Neuropeptides B/W receptor type 1 (Homo sapiens, UniProt P48145); assay: Fluorescence-based dose response cell-based high throughput screening assay to identify antagonists of the G-protein coupled receptor 7 (GPR7). [Related pubchem assays: 1952 (Screening assay (GPR7 antagonists).), 1880 (Summary AID.)]; type: functional
T2 sequence (P48145 whole entry): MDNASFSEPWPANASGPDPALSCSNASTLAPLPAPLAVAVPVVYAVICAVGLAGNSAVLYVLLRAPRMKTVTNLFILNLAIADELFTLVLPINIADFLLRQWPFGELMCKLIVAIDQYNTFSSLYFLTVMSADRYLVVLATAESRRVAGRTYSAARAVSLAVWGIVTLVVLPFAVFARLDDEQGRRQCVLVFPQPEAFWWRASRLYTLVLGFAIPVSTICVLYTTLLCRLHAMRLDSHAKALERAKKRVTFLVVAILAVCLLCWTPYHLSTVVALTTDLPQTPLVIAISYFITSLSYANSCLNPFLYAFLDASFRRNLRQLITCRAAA

[5] = molecular target: Voltage-dependent T-type calcium channel subunit alpha-1H (Homo sapiens, UniProt O95180); type: functional;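 also: channel activity triggered by adding a high calcium stimulation buffer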
Sequence of Voltage-dependent T-type calcium channel subunit alpha-1H (O95180 whole entry): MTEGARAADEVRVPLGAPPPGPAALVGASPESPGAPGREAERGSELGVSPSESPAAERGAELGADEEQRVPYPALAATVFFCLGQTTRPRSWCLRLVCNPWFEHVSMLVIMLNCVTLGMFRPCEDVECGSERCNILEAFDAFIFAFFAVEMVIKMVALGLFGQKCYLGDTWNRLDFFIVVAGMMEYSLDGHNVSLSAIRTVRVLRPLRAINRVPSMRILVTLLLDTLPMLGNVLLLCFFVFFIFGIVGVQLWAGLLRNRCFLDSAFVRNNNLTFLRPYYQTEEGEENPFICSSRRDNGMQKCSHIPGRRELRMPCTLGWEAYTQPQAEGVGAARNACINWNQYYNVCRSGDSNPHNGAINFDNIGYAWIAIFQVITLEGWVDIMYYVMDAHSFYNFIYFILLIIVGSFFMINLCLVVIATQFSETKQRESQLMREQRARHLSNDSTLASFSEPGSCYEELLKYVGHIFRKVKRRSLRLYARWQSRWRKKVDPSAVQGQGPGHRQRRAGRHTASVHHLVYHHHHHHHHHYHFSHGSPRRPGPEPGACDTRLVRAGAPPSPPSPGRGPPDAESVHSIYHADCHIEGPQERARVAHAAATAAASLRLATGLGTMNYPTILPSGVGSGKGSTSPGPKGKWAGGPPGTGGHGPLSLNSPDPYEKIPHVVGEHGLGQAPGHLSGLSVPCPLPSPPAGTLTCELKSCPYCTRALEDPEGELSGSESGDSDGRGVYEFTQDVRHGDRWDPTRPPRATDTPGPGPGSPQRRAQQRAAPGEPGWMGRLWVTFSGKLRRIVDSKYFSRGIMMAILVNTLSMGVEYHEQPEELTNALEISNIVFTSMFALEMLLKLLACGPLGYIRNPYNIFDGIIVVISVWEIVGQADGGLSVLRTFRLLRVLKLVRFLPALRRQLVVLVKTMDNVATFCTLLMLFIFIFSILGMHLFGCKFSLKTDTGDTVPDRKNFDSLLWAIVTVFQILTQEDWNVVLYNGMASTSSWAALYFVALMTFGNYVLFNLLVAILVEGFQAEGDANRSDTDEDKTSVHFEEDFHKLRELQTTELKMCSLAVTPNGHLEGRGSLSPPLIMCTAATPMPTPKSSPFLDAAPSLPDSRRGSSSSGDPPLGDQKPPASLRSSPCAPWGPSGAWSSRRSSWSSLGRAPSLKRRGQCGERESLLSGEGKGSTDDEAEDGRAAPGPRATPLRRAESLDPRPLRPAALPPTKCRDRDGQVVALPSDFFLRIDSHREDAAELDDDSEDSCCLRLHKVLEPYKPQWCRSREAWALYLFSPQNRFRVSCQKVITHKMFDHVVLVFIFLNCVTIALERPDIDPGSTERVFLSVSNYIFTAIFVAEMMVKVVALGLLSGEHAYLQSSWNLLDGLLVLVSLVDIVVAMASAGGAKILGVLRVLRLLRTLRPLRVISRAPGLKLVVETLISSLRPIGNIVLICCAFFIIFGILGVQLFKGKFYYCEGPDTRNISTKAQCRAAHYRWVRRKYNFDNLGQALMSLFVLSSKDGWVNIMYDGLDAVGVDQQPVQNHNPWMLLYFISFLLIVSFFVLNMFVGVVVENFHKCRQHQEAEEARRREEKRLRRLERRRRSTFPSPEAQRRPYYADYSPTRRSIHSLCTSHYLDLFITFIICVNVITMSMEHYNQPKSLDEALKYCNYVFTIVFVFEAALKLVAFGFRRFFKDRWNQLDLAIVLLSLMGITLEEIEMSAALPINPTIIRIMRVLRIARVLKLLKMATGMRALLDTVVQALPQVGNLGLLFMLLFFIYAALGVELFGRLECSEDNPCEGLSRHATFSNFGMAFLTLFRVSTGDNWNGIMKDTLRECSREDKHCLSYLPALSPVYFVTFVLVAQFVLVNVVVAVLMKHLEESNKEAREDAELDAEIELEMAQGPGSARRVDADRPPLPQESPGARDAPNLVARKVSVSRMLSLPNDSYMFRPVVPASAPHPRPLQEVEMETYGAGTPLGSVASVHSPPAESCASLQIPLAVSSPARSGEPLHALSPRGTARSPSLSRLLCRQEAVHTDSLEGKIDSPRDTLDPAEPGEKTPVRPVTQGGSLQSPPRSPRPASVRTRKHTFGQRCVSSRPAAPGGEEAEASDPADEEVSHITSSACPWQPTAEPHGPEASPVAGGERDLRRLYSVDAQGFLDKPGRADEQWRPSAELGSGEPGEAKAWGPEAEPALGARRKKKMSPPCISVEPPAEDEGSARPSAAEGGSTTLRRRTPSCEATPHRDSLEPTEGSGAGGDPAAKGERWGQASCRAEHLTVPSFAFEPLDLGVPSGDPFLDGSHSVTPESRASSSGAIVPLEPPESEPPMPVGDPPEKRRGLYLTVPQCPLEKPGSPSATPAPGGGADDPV

Hexokinase HKDC1 = molecular target: T3, Hexokinase HKDC1 (Homo sapiens, UniProt Q2TB90); assay: HKDC1 hexokinase inhibitors, dose response, biochemical, W721R variant (AID 504729); type: functional
T3 sequence (Q2TB90 whole entry): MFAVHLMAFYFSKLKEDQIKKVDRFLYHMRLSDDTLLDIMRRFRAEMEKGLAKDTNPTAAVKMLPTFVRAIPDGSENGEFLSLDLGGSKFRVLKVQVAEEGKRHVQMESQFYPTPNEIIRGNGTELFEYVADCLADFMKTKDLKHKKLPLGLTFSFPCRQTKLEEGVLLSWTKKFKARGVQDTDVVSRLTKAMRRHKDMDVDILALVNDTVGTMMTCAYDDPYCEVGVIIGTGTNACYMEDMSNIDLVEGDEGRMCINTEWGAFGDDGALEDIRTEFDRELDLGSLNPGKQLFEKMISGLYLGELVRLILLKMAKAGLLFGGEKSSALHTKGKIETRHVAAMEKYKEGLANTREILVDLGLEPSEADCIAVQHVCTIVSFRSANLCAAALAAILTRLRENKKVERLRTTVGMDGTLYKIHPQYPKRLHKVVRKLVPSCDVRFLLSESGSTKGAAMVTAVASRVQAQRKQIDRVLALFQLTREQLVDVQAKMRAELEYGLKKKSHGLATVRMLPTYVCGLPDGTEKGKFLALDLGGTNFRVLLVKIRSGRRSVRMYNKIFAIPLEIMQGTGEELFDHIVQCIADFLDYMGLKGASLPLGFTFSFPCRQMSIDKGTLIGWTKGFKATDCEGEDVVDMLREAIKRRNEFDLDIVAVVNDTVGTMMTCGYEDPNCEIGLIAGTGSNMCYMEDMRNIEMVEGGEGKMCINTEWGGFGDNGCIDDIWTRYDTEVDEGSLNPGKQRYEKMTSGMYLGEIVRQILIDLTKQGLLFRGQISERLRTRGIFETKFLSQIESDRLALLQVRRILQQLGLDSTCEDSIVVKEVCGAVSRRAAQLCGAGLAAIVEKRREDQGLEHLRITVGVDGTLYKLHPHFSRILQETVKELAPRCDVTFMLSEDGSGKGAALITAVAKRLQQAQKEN

[6] = molecular target: Eukaryotic translation initiation factor 4H (Homo sapiens, UniProt Q15056); assay: human eIF4H binding inhibitors, primary screen, translation initiation inhibitor project, biochemical, uHTS, fluorescence polarization (AID 2012)
[7] = molecular target: Polyadenylate-binding protein 1 (Homo sapiens, UniProt P11940); assay: PABP poly(A) RNA binding inhibitors, primary screen, biochemical, fluorescence polarization, uHTS (AID 2014)
Sequence of Polyadenylate-binding protein 1 (P11940 whole entry): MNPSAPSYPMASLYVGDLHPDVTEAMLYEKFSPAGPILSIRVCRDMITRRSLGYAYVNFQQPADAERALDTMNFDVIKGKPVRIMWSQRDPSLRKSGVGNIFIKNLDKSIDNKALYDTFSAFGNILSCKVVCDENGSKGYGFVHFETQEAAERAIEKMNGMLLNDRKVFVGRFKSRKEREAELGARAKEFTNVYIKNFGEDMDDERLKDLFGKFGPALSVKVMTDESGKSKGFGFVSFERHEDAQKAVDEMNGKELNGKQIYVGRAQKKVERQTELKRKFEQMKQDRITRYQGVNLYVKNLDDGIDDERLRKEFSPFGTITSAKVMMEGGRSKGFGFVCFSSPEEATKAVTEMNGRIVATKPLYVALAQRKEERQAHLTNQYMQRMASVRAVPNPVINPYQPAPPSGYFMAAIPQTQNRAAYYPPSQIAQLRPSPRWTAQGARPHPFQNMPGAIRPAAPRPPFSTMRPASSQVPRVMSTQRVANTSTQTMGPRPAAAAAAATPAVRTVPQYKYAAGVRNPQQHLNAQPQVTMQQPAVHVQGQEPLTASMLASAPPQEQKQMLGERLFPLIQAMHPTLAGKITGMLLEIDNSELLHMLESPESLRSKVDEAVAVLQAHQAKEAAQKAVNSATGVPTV

[8] = molecular target: T4, Calpain-2 catalytic subunit (Sus scrofa, UniProt P43367); assay: pig calpain II inhibitor potency, dose response, biochemical, fluorogenic peptide substrate (AID 1420); type: functional
T4 sequence (P43367 whole entry): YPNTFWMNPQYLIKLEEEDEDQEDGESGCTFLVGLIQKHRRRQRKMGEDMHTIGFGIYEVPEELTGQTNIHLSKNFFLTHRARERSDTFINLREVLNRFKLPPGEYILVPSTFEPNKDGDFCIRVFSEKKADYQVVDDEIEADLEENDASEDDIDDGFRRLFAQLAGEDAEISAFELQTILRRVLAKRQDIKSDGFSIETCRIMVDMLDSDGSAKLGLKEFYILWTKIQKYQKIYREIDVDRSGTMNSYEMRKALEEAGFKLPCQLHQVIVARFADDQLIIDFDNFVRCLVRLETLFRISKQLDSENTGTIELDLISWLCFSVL

[9] = molecular target: DNA dC->dU-editing enzyme APOBEC-3G (Homo sapiens, UniProt Q9HC16); type: functional;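 also: Dose-response counterscreen measuring inhibition of APOBEC3G DNA deaminase activity, run while confirming APOBEC3A inhibitors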
Sequence of DNA dC->dU-editing enzyme APOBEC-3G (Q9HC16 whole entry): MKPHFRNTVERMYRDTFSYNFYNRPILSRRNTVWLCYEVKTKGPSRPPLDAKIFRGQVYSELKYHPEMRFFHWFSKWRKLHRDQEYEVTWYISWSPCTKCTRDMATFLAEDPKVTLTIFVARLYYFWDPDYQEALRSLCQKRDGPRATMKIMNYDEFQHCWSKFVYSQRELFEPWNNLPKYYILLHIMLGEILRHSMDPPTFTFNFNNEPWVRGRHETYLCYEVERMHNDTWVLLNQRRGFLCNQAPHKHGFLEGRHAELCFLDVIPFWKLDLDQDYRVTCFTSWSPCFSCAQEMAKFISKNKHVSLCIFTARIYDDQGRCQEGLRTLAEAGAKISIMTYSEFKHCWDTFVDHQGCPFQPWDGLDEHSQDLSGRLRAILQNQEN

[10] = molecular target: DNA dC->dU-editing enzyme APOBEC-3A (Homo sapiens, UniProt P31941); assay: Dose Response confirmation of small molecule APOBEC3A DNA Deaminase Inhibitors via a fluorescence-based single-stranded DNA deaminase assay. [Related pubchem assays (depositor defined):AID493011, AID493024]; type: functional
Sequence of DNA dC->dU-editing enzyme APOBEC-3A (P31941 whole entry): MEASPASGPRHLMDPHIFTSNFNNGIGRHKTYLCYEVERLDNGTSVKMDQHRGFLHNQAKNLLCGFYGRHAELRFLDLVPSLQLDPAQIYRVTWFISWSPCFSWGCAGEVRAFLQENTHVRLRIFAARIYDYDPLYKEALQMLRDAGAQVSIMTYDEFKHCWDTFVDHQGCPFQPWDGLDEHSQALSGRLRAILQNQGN

[11] = molecular target: T5, Eukaryotic translation initiation factor 2-alpha kinase 3 (Homo sapiens, UniProt Q9NZJ5); assay: Dose response cell-based high-throughput screening assay to measure PERK inhibition. [Related pubchem assays: 1416 ]; type: functional
T5 sequence (Q9NZJ5 whole entry): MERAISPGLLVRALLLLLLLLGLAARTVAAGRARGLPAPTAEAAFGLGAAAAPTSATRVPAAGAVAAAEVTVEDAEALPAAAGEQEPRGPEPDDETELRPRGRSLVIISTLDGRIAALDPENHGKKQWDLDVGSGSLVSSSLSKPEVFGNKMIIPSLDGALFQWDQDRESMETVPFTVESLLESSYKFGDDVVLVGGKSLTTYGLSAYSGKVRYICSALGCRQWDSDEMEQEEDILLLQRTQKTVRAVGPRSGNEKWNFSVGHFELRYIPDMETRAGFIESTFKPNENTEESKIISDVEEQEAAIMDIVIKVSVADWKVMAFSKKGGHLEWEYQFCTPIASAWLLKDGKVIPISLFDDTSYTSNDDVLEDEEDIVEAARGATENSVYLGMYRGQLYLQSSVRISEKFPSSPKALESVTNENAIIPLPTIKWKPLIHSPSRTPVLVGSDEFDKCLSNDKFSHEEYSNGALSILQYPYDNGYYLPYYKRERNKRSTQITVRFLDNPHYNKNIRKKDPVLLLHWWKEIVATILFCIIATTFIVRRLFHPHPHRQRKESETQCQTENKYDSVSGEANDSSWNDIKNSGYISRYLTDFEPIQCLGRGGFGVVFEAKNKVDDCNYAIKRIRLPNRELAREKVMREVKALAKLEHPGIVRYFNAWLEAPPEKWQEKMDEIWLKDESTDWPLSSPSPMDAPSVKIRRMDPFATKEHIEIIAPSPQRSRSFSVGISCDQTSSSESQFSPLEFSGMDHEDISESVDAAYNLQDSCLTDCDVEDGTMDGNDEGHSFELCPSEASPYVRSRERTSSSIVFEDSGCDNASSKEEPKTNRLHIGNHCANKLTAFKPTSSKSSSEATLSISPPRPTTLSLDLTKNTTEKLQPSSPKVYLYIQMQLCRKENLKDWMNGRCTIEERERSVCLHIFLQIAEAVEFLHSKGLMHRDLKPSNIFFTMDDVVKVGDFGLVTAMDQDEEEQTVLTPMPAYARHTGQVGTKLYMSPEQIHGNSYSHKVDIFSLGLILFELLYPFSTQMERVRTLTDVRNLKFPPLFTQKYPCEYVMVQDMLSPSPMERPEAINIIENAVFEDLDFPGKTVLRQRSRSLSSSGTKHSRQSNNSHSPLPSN

[12] = molecular target: T5, Eukaryotic translation initiation factor 2-alpha kinase 3; assay: Counterscreen assay for PERK inhibitors: Dose response cell-based high throughput screening assay to measure inhibition of PERK at 6 hours. [Related pubchem assays: 1522, 1416 ]; type: functional
[13] = microbe, parasite or virus in culture; type: functional; details: Mycobacterium tuberculosis
[14] = molecular target: Lysosomal acid glucosylceramidase (Homo sapiens, UniProt P04062); assay: Dose response cell-based high throughput screening assay to identify enhancers of beta-glucosidase activity. [Related pubchem assays: 784 ]; type: functional
Sequence of Lysosomal acid glucosylceramidase (P04062 whole entry): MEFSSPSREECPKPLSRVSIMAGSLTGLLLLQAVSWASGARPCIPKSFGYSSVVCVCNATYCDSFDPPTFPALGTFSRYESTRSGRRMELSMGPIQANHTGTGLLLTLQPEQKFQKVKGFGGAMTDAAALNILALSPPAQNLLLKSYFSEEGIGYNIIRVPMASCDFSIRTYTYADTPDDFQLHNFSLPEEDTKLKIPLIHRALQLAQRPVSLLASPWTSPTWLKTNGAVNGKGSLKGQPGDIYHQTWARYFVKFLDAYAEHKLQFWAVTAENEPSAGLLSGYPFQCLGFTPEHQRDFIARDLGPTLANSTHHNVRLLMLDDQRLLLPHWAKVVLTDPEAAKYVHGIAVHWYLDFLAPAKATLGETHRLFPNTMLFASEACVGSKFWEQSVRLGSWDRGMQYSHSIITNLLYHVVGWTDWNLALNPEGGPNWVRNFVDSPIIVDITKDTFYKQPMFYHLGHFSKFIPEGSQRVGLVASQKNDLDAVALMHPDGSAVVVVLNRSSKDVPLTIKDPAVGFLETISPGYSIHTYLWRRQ

[15] = Luminescence Cell-Based Dose Retest to Confirm Inhibitors of Cancer Stem Cells. [Related pubchem assays (depositor defined):AID2717, AID2721]; type: functional; details: Homo sapiens
[16] = molecular target: T6, Scavenger receptor class B member 1 (Mus musculus, UniProt Q61009); assay: inhibitors of SR-BI mediated HDL lipid uptake, dose response, ldlA[mSR-BI] cells, fluorescence, cherry pick (AID 493194); type: functional, cell-based;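 also: cellular uptake of fluorescent DiI-labeled HDL measured as cell fluorescence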
T6 sequence (Q61009 whole entry): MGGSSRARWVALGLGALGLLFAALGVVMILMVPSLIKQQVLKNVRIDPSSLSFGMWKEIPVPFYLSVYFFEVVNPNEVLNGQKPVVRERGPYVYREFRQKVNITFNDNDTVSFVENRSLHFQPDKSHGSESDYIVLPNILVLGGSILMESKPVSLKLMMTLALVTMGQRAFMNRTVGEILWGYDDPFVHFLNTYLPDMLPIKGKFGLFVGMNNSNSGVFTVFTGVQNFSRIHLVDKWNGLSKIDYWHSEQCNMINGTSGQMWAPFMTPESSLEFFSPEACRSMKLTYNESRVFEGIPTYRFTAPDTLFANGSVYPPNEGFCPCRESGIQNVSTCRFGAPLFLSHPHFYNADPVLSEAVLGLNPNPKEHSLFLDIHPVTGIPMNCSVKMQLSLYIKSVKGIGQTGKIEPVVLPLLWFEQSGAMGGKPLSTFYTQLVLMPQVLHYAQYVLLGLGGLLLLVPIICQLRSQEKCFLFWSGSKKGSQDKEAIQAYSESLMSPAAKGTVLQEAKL

[17] = cytotoxicity in HEK-293T cells, dose response, cytotoxicity control for BCR NF-kB inhibitor project, luminescence, B-cell screen hits (AID 489021); type: functional, cell-based;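 also: HEK-293T cells carrying an NF-kB luciferase reporter; cells exposed to compound for about 14 hours before viability readout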
[18] = insulin promoter down-regulators in MIN6 cells, imaging, high-content screening, mouse beta cells (AID 1628); type: functional
[19] = cytotoxicity in MIN6 insulinoma cells, dose response, cytotoxicity control, cell-based, mouse insulinoma (AID 2122); type: functional;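 also: confirmatory high-throughput counterscreen run to flag cytotoxic compounds; mouse MIN-6 beta cells carrying an insulin promoter eGFP reporter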

With `O=C(CCC(=O)NNc1nc2ccccc2c2nc(-c3ccccc3)nn12)NCCCN1CCOCC1` the EC50 [1] was 70.8 µM (not active) and the CC50 [2] was > 40 µM (active).

For `CC(C)(CO)NCc1c(OCc2ccc(Cl)cc2)ccc2ccccc12`, the IC50 [3] was 9.31 µM (active) and the IC50 [4] was 7.85 µM (active).

For `Cc1ccccc1OCC(=O)N(Cc1nc(-c2ccccc2)no1)C(C)C`, the EC50 [5] was 5.63 µM (active).

For `CCCCNC(=O)c1sc(=S)n2c1[nH]c(=O)c1ccc(C(=O)NCCc3ccc(OC)c(OC)c3)cc12`, the IC50 (Hexokinase HKDC1) was 35.7 µM (inactive).

With `COc1cc(/C=N\NC(=O)c2ccc(Cl)cc2)ccc1Oc1ccc([N+](=O)[O-])cn1` the IC50 [6] was > 100 µM (inactive) and the IC50 [7] was 9.22 µM (active).

For `COc1ccc(CCCc2nnc(SCC(=O)Nc3ccc(C)c(C)c3)o2)cc1`, the IC50 [8] was < 0.4 µM (not active), the IC50 [6] was > 100 µM (inactive) and the IC50 [9] was 3.68 µM (active). For the same molecule, the IC50 [7] was 6.61 µM (active) and the IC50 [10] was 2.18 µM (active).

In the case of `COc1ccc2c(c1)c(=O)oc1cc(O)ccc12`, the EC50 [11] is reported as > 55.7 µM (not active) and the EC50 [12] is reported as > 55.7 µM (not active).

With `COc1ccc(-c2nc3ccccn3c2CN2CCN(c3ccccc3F)CC2)cc1` the CC50 [13] was > 40 µM (active) and the EC50 [1] was 69.1 µM (not active).

With `Cn1c(Cc2ccccc2)nnc1SCC(=O)Nc1ccccc1N1CCOCC1` the EC50 [14] was > 50 µM (not active).

In the case of `C=CCCC(=O)Nc1nc(C)c(-c2csc(Nc3ccc(Cl)cc3)n2)s1`, the AC50 [15] is reported as 2.6 µM (active) and the AC50 [16] is reported as 7.3 µM (active).

For `COc1ccc(NC(=O)CN(C)C(=O)C2(c3ccccc3)CCCC2)cc1`, the IC50 [17] was > 80 µM (inactive).

With `CCOC(=O)CN1C(=O)CSc2ccccc21` the EC50 [14] was > 10 µM (not active).

In the case of `c1ccc(C(c2nnnn2Cc2ccco2)N2CCN(c3nc4ccccc4s3)CC2)cc1` (stereo not drawn), the EC50 [5] is reported as 6.65 µM (active).

For `O=C(O)Cn1cnc2c(S)ncnc21`, the EC50 [11] was > 55.7 µM (not active) and the EC50 [12] was > 55.7 µM (not active).

In the case of `N=c1ccn(Cc2ccccc2Cl)cc1`, the IC50 [18] is reported as 3.37 µM (active), the IC50 [19] is reported as 3.42 µM (active) and the IC50 [17] is reported as > 80 µM (inactive).
